Assay results taken from patent US20250026753A1, “FUSED TRIAZINONE DERIVATIVES AND METHODS OF USING THE SAME” (Rgenta Therapeutics, Inc., priority 2021, published 2025).
Where a name gives a salt, the structure may show the parent alone.

Legend:
K562 = assay: Cell proliferation assay (CellTiterGlo, 72 hour incubation), K562; type: cell-based; settings: Homo sapiens, K562 cells, inhibition of cell proliferation, CellTiterGlo luminescence
Protocol: (§1) Various cancer cell lines including K562 and COLO201, were treated with the compounds of the present disclosure to assess their effect on inhibiting cell proliferation.
(§2) For compound preparation, test compounds were diluted in duplicates from 10 mM stocks in 11-points 1:3 serial dilutions in DMSO. Then 125 nL test compounds at the serial dilutions were dispensed into 384-well assay plate using Echo dispenser. Staurosporine at 1 mM stock (5 μM final concentration) and DMSO (0.500 final concentration) were used as the positive and negative controls respectively.
(§3) To prepare cell lines, each frozen cell line stock was resuspended and grown in proper growth medium to a density of 40,000 cells/mL. Then 25 μL of cell suspension were dispensed into the assay plate to give seed cell density at 1,000 cells/well, compounds at 50 μM top concentration with 11-point serial dilutions, and 0.5% o DMSO final concentration. Assay plates were then centrifuged at 300 rpm for 1 minute and then incubated at 37° C., 9500 humidity, 500 CO2 for 72 hours. After the 72 hour incubation, the assay plate and its contents were equilibrated at room temperature for approximately 30 minutes. 25 μL of CellTiterGlo reagent was added to the assay plate and mixed for two minutes on an orbital shaker. Then after 10 minutes of incubation of assay plate at from temperature, the luminescence (RLU) signals in each well were recorded using Envision plate reader, then converted to percentage inhibition values using the signals in staurosporine and DMSO treated wells as the references. IC50 values were determined by curve fitting in Levenberg-Marquardt algorithm.

COLO201 = assay: Cell proliferation assay (CellTiterGlo, 72 hour incubation), COLO201; type: cell-based; settings: Homo sapiens, COLO 201, COLO201 cells, inhibition of cell proliferation, CellTiterGlo luminescence
Protocol: as §1, §2, §3

Row | SMILES | IC50 (K562) [µM] | IC50 (COLO201) [µM]
1 | Cc1cn2cc(-c3nc(=O)n4cc(N5CC6CCCC(C5)N6)ccc4n3)cc(F)c2n1 [Compound 118, 7-(3,9-diazabicyclo[3.3.1]nonan-3-yl)-2-(8-fluoro-2-methylimidazo[1,2-a]pyridin-6-yl)-4H-pyrido[1,2-a][1,3,5]triazin-4-one hydrochloride] | < 1 | 1 to 10
2 | Cc1cn2cc(-c3nc(=O)n4cc(C5=CCNCC5)ccc4n3)cc(F)c2n1 [Compound 111, 2-(8-fluoro-2-methylimidazo[1,2-a]pyridin-6-yl)-7-(1,2,3,6-tetrahydropyridin-4-yl)-4H-pyrido[1,2-a][1,3,5]triazin-4-one hydrochloride] | 1 to 10 | < 1
3 | Cc1cn2cc(-c3nc(=O)n4cc(N5CCNC(C)(C)C5)cc(C)c4n3)cc(F)c2n1 [Compound 125, 7-(3,3-dimethylpiperazin-1-yl)-2-(8-fluoro-2-methylimidazo [1,2-a]pyridin-6-yl)-9-methyl-4H-pyrido[1,2-a][1,3,5]triazin-4-one hydrochloride] | 1 to 10 | –
4 | Cc1cn2cc(-c3nc(=O)n4cc(N5CCNC6(CC6)C5)cc(C)c4n3)cc(F)c2n1 [Compound 132, 7-{4,7-diazaspiro[2.5]octan-7-yl}-2-{8-fluoro-2-methylimidazo[1,2-a]pyridin-6-yl}-9-methyl-4H-pyrido[1,2-a][1,3,5]triazin-4-one] | 1 to 10 | –
5 | Cc1cn2cc(-c3nc(=O)n4cc(N5CCNC(C)(C)C5)cc(F)c4n3)cc(F)c2n1 [Compound 130, 7-(3,3-dimethylpiperazin-1-yl)-9-fluoro-2-{8-fluoro-2-methylimidazo[1,2-a]pyridin-6-yl}-4H-pyrido[1,2-a][1,3,5]triazin-4-one] | < 1 | –
6 | Cc1cn2cc(-c3nc(=O)n4cc(N5CC6CCC(C5)N6)ccc4n3)cc(F)c2n1 [Compound 105, 7-(3,8-diazabicyclo[3.2.1]octan-3-yl)-2-(8-fluoro-2-methylimidazo[1,2-a]pyridin-6-yl)-4H-pyrido[1,2-a][1,3,5]triazin-4-one hydrochloride] | ≥ 10 | ≥ 10
7 | Cc1cc2cc(-c3nc(=O)n4cc(N5CCN[C@@H](C)C5)cc(C)c4n3)cc(C)n2n1 [Compound 129, 2-{2,7-dimethylpyrazolo[1,5-a]pyridin-5-yl}-9-methyl-7-[(3S)-3-methylpiperazin-1-yl]-4H-pyrido[1,2-a][1,3,5]triazin-4-one] | 1 to 10 | –
8 | CC[C@H]1CN(c2cc(F)c3nc(-c4cc(F)c5nc(C)cn5c4)nc(=O)n3c2)CCN1 [Compound 128, 7-[(3S)-3-ethylpiperazin-1-yl]-9-fluoro-2-{8-fluoro-2-methylimidazo[1,2-a]pyridin-6-yl}-4H-pyrido[1,2-a][1,3,5]triazin-4-one] | < 1 | –
9 | Cc1cc2cc(-c3nc(=O)n4cc(N5CCN[C@@H](C)C5)ccc4n3)cc(C)n2n1 [Compound 134, (S)-2-(2,7-dimethylpyrazolo[1,5-a]pyridin-5-yl)-7-(3-methylpiperazin-1-yl)-4H-pyrido[1,2-a][1,3,5]triazin-4-one] | 1 to 10 | –
10 | Cc1cc2cc(-c3nc(=O)n4cc(N5CCNC(C)(C)C5)cc(F)c4n3)cc(C)n2n1 [Compound 135, 7-(3,3-dimethylpiperazin-1-yl)-2-(2,7-dimethylpyrazolo[1,5-a]pyridin-5-yl)-9-fluoro-4H-pyrido[1,2-a][1,3,5]triazin-4-one] | 1 to 10 | –
11 | Cc1cn2cc(-c3nc(=O)n4cc(N5CCN(C)[C@@H](C)C5)cc(C)c4n3)cc(F)c2n1 [Compound 124, (S)-7-(3,4-dimethylpiperazin-1-yl)-2-(8-fluoro-2-methylimidazo[1,2-a]pyridin-6-yl)-9-methyl-4H-pyrido[1,2-a][1,3,5]triazin-4-one] | 1 to 10 | –

Now from value to compound:

Row | IC50 (K562) [µM] | IC50 (COLO201) [µM] | SMILES
12 | 1 to 10 | 1 to 10 | COc1cc2nc(-c3cc(F)c4nc(C)cn4c3)nc(=O)n2cc1N1CCNCC1 [Compound 119, 2-(8-fluoro-2-methylimidazo[1,2-a]pyridin-6-yl)-8-methoxy-7-(piperazin-1-yl)-4H-pyrido[1,2-a][1,3,5]triazin-4-one]
13 | < 1 | < 1 | Cc1cn2cc(-c3nc(=O)n4cc(N5CCN[C@@H](C)C5)cc(F)c4n3)cc(C)c2n1 [Compound 121, (S)-2-(2,8-dimethylimidazo[1,2-a]pyridin-6-yl)-9-fluoro-7-(3-methylpiperazin-1-yl)-4H-pyrido[1,2-a][1,3,5]triazin-4-one hydrochloride]
14 | < 1 | 1 to 10 | Cc1cn2cc(-c3nc(=O)n4cc(N5CCN[C@H](C)C5)ccc4n3)cc(F)c2n1 [Compound 102, (R)-2-(8-fluoro-2-methylimidazo[1,2-a]pyridin-6-yl)-7-(3-methylpiperazin-1-yl)-4H-pyrido[1,2-a][1,3,5]triazin-4-one formic acid]
15 | 1 to 10 | – | Cc1cn2cc(-c3nc(=O)n4cc(N5CCN[C@@H](C)C5)cc(C)c4n3)cc(C)c2n1 [Compound 123, (S)-2-(2,8-dimethylimidazo[1,2-a]pyridin-6-yl)-9-methyl-7-(3-methylpiperazin-1-yl)-4H-pyrido[1,2-a][1,3,5]triazin-4-one hydrochloride]
16 | 1 to 10 | ≥ 10 | Cc1cn2cc(-c3nc(=O)n4c(C)c(N5CCNCC5)ccc4n3)cc(F)c2n1 [Compound 122, 2-(8-fluoro-2-methylimidazo[1,2-a]pyridin-6-yl)-6-methyl-7-(piperazin-1-yl)-4H-pyrido[1,2-a][1,3,5]triazin-4-one hydrochloride]
17 | 1 to 10 | – | Cc1cn2cc(-c3nc(=O)n4cc(N5CCNCC5)ccc4n3)cc(C)c2n1 [Compound 126, 2-2,8-dimethylimidazo[1,2-a]pyridin-6-yl-7-(piperazin-1-yl)-4H-pyrido[1,2-a][1,3,5]triazin-4-one hydrochloride]
18 | < 1 | – | Cc1cn2cc(-c3nc(=O)n4cc(N5CCNCC5)ccc4n3)cc(F)c2n1 [Compound 99, 2-{8-fluoro-2-methylimidazo[1,2-a]pyridin-6-yl}-7-(piperazin-1-yl)-4H-pyrido[1,2-a][1,3,5]triazin-4-one]
19 | < 1 | < 1 | Cc1cn2cc(-c3nc(=O)n4cc(N5CCN[C@@H](C)C5)cc(C)c4n3)cc(F)c2n1 [Compound 117, (S)-2-(8-fluoro-2-methylimidazo[1,2-a]pyridin-6-yl)-9-methyl-7-(3-methylpiperazin-1-yl)-4H-pyrido[1,2-a][1,3,5]triazin-4-one hydrochloride]
20 | 1 to 10 | 1 to 10 | COc1cc(N2CCNCC2)cn2c(=O)nc(-c3cc(F)c4nc(C)cn4c3)nc12 [Compound 114, 2-(8-fluoro-2-methylimidazo[1,2-a]pyridin-6-yl)-9-methoxy-7-(piperazin-1-yl)-4H-pyrido[1,2-a][1,3,5]triazin-4-one hydrochloride]
21 | – | < 1 | Cc1cn2cc(-c3nc(=O)n4cc(N5CCNCC5)ccc4n3)cc(F)c2n1 [Compound 100, 2-(8-fluoro-2-methylimidazo[1,2-a]pyridin-6-yl)-7-(piperazin-1-yl)-4H-pyrido[1,2-a][1,3,5]triazin-4-one hydrochloride]
22 | 1 to 10 | – | Cc1cn2cc(-c3nc(=O)n4cc(C5CCNC5)ccc4n3)cc(F)c2n1 (stereo not shown) [Compound 112, 2-(8-fluoro-2-methylimidazo[1,2-a]pyridin-6-yl)-7-(pyrrolidin-3-yl)-4H-pyrido[1,2-a][1,3,5]triazin-4-one hydrochloride]
